Experimental data reported in patent US20110093959A1, “CRYPTOTIS PARVA SCREENING MODEL FOR ANTIEMETIC POTENTIAL” (priority 2008, published 2011).
“Also recorded” adds a separate entry of the source.

Assays:
Format in all cases: in vivo, Cryptotis parva
[1] = test system: Least Shrew; experiment: Emetic effect of arachidonic acid metabolites and leukotrienes in the Least Shrew; details: found experimentally
Protocol: Varying doses of leukotriene LTC4 were administered by intraperitoneal injection, and dose-response emetic effects recorded for 30 min post-injection observation period. The graph in FIG. 20 depicts enhancements in the frequency (mean±S.E.M.) of emesis.

[2] = test system: GR73632-induced emesis and scratching in the Least Shrew; experiment: Antagonist interaction study against GR73632 (5 mg/kg, i.p.)-induced emesis and scratching; details: for behavioral effect of antagonist by itself: 20 mg/kg dose, without GR73632
From the text: The present protocols were based upon preliminary studies as well as published findings in the Least Shrew. Darmani, 2001a; Darmani et al., 69 Pharmacol. Biochem. Behay. 239-49 (2001b). On the test day, the shrews were allowed to acclimate to the test laboratory for at least one hour prior to experimentation. To habituate the animals to the test environment, each shrew was randomly selected and transferred to a 20 cm×18 cm×21 cm clean clear plastic cage and offered four mealworms (Tenebrio sp.) 30 min prior to experimentation.
The latter doses of SP and GR73632 were chosen for subsequent antagonist interaction studies to pharmacologically characterize the role of NK1 receptors in the mediation of induced emesis by the use of: (1) two selective neurokinin NK1 receptor antagonists (CP99,994 and L733060) (Watson et al., 115 Br. J. Phramacol. 84-94 (1995); Guiard et al., 89 J. Neurochem. 54-63 (2004)); (2) an NK2 receptor antagonist (GR159897) (Beresford et al., 272 Eur. J. Pharmacol. 241-48 (1995)); and (3) an NK3 receptor antagonist (SB218795) (Salthun-Lassalle et al., 1995).
For the above drug interaction studies, different doses (i.p.) of either CP99,994 (0, 5, 10, and 20 mg/kg, n=10-14 shrews per group); L733060 (0, 5, 10, and 20 mg/kg, n=10-14 shrews per group), GR159897 (0 mg/kg and 20 mg/kg, n=8 per group) or SB218795 (0 or 20 mg/kg, n=7-8 per group) were administered to different groups of shrews 30 min prior to injection of an emetic dose (5 mg/kg, i.p.) of the NK1-receptor agonist GR73632. Emesis and scratchings were recorded for 30 min immediately following GR73632 administration as described above. The antiemetic effect of CP99,994 (0, 5, and 10 mg/kg, n=9-10 animals per group) was also investigated in a similar manner against SP (50 mg/kg, i.p.)-induced emesis.
(§1) The data on the frequency of emesis and scratchings were analyzed by the Kruskal-Wallis (KW) nonparametric one-way analysis of variance (ANOVA) and post hoc analysis by Dunn's multiple comparisons test or Mann-Whitney test. A P value of <0.05 was necessary to attain statistical significance. The incidence of emesis (number of shrews vomiting) was analyzed by the Fisher's exact test to determine whether there were differences between groups. When appropriate, pairwise comparisons were also made by this method. Two-way analysis of variance using the Kruskal-Wallis or Fisher's exact tests were initially utilized to respectively analyze the dose-response results of GR73632 on emesis and scratching behaviors, and percentage of shrews vomiting in saporin- and corresponding saline-pretreated control shrews. […] For some emesis data, the two-tailed Mann-Whitney test was used. The SP tissue concentration data were analyzed by a one-way ANOVA followed by Dunnett's t test as post hoc analysis. Fos-IR was quantified by counting immunopositive nuclei within each hemisection containing the region of interest (ROI). The number of nuclei was averaged across sections with the ROI for each animal, and the group mean and standard error obtained.

[3] = test system: CIS-induced emesis in the Least Shrew; experiment: Tropisetron, Δ^9-THC and dexamethasone alone or in combination against CIS (20 mg/kg)-induced emesis, 60 min
Protocol: Briefly, all animals were randomly divided into two groups. On the test day, shrews were habituated to the laboratory environment for at least 1 hr prior to experimentation. […] All drugs were administered at a volume of 0.1 ml/10 g body weight. Immediately following the second injection, each shrew was placed in the observation cage, and both the number of animals vomiting per group and the frequency of vomiting (oral ejections of food or liquid) were recorded for the next 60 min
Poisson regression and logistic regression analyses were employed for two-way analysis of vomiting frequency and protection from emesis, respectively. […] Data regarding the frequency of emesis were analyzed by the Kruskal-Wallis nonparametric one-way analysis of variance (ANOVA), and post hoc analysis by Dunn's multiple comparisons test. The incidence of emesis (number of animals vomiting) was analyzed by Fisher's exact test to determine whether there were differences between groups, and when appropriate, pairwise comparisons were also made. A p value of<0.05 was necessary to achieve statistical significance.

[4] = test system: Least Shrew; experiment: Dose response emesis and scratching studies with tachykinin receptor agonists
From the text: The present protocols were based upon preliminary studies as well as published findings in the Least Shrew. Darmani, 2001a; Darmani et al., 69 Pharmacol. Biochem. Behay. 239-49 (2001b). On the test day, the shrews were allowed to acclimate to the test laboratory for at least one hour prior to experimentation. To habituate the animals to the test environment, each shrew was randomly selected and transferred to a 20 cm×18 cm×21 cm clean clear plastic cage and offered four mealworms (Tenebrio sp.) 30 min prior to experimentation. […]
as §1

[5] = 1 mg/kg i.p., administered alone
[6] = 5 mg/kg i.p., administered alone
[7] = tropisetron 0.1 mg/kg with 0.5 mg/kg Δ^9-THC
[8] = tropisetron 0.25 mg/kg with 0.25 mg/kg Δ^9-THC
[9] = tropisetron 0.25 mg/kg with 0.5 mg/kg Δ^9-THC
[10] = tropisetron 1 mg/kg with 0.1 mg/kg Δ^9-THC
[11] = tropisetron 1 mg/kg with 0.25 mg/kg Δ^9-THC
[12] = tropisetron 1 mg/kg with 0.5 mg/kg Δ^9-THC
[13] = tropisetron 5 mg/kg with 0.1 mg/kg Δ^9-THC
[14] = tropisetron 5 mg/kg with 0.25 mg/kg Δ^9-THC
[15] = tropisetron 5 mg/kg with 0.5 mg/kg Δ^9-THC

Compound: O=C(O)CCC/C=C\C[C@H]1C(=O)C[C@@H](O)[C@@H]1/C=C/[C@@H](O)CCCCCO [20 Hydroxy PGE2]
- emesis in the Least Shrew [1]: produce emesis

Compound: O=C(O)CCC/C=C\C[C@@H]1[C@@H](/C=C/[C@@H](O)CCCCCO)[C@H](O)C[C@@H]1O [20 Hydroxy PGE2α]
- emesis in the Least Shrew [1]: produce emesis

Compound: COC1(C[S@@+]([O-])c2ccccc2)CCN(CCc2c[nH]c3ccc(F)cc23)CC1 [GR159897, 5-Flouro-3-[2-[4-methoxy-4-[[(R)-phenylsulphinyl]methyl]-1-piperidinyl]ethyl]-1H-indole]
- behavioral effect of antagonist by itself [2]: did not produce any behavioral effect
- enhancement of frequency of GR73632-induced emesis ([2]; antagonist 20 mg/kg i.p.): did not attain significance
- enhancement of frequency of GR73632-induced scratching ([2]; antagonist 20 mg/kg i.p.): did not attain significance
- percentage of shrews vomiting in response to GR73632 ([2]; antagonist 20 mg/kg i.p.): failed to affect

Compound: Cl.FC(F)(F)c1cc(CO[C@H]2CCCN[C@H]2c2ccccc2)cc(C(F)(F)F)c1 [L733060]
- reduction in frequency of GR73632-induced emesis ([2]; antagonist 5 mg/kg i.p.): 62%
- reduction in percentage of shrews vomiting in response to GR73632 ([2]; antagonist 5 mg/kg i.p.): 33%
- reduction of GR73632-induced scratchings ([2]; antagonist 5 mg/kg i.p.): 63%
- reduction in frequency of GR73632-induced emesis ([2]; antagonist 10 mg/kg i.p.): 74%
- reduction in percentage of shrews vomiting in response to GR73632 ([2]; antagonist 10 mg/kg i.p.): 53%
- reduction of GR73632-induced scratchings ([2]; antagonist 10 mg/kg i.p.): 69%
- reduction in frequency of GR73632-induced emesis ([2]; antagonist 20 mg/kg i.p.): 95%
- reduction in percentage of shrews vomiting in response to GR73632 ([2]; antagonist 20 mg/kg i.p.): 73%
- reduction of GR73632-induced scratchings ([2]; antagonist 20 mg/kg i.p.): 54%
- onset of first emesis induced by GR73632 ([2]; at highest tested effective antiemetic doses): only delayed the onset of first emesis

Compound: CCCCC/C=C\C\C=C/C=C/C=C/[C@@H]1O[C@H]1CCCC(=O)O [LTA4]
- emesis in the Least Shrew [1]: non-emetic

Compound: CCCCC/C=C\C[C@@H](O)/C=C/C=C/C=C\[C@@H](O)CCCC(=O)O [LTB4]
- emesis in the Least Shrew [1]: non-emetic

Compound: CCCCC/C=C\C\C=C/C=C/C=C/[C@@H](SC[C@H](NC(=O)CC[C@H](N)C(=O)O)C(=O)NCC(=O)O)[C@@H](O)CCCC(=O)O [LTC4]
- emesis in the Least Shrew [1]: potent emetogens; also recorded: produce emesis

Compound: CCCCC/C=C\C\C=C/C=C/C=C/[C@@H](SC[C@H](N)C(=O)NCC(=O)O)[C@@H](O)CCCC(=O)O [LTD4]
- emesis in the Least Shrew [1]: potent emetogens; also recorded: produce emesis

Compound: CCCCC/C=C\C\C=C/C=C/C=C/[C@@H](SC[C@H](N)C(=O)O)[C@@H](O)CCCC(=O)O [LTE4]
- emesis in the Least Shrew [1]: non-emetic

Compound: CCCCC/C=C\C\C=C/C=C/C=C/[C@@H](SC[C@H](NC(=O)CC[C@@H](N)C(=O)O)C(=O)O)[C@@H](O)CCCC(=O)O [LTF4]
- emesis in the Least Shrew [1]: non-emetic

Compound: CCCCC[C@H](O)/C=C/[C@H]1C(=O)C[C@H](O)[C@@H]1C/C=C\CCCC(=O)O [PGD2]
- emesis in the Least Shrew [1]: non-emetic

Compound: COC(=O)C(NC(=O)c1cc(-c2ccccc2)nc2ccccc12)c1ccccc1 (stereo not drawn) [SB218795]
- behavioral effect of antagonist by itself [2]: did not produce any behavioral effect
- enhancement of frequency of GR73632-induced emesis ([2]; antagonist 20 mg/kg i.p.): did not attain significance
- enhancement of frequency of GR73632-induced scratching ([2]; antagonist 20 mg/kg i.p.): did not attain significance
- percentage of shrews vomiting in response to GR73632 ([2]; antagonist 20 mg/kg i.p.): failed to affect

Compound: CN1[C@@H]2CC[C@H]1C[C@@H](OC(=O)c1c[nH]c3ccccc13)C2 [tropisetron]
- reduction in frequency of CIS-induced emesis ([3]; 0.25 mg/kg i.p., administered alone): 79%
- reduction in frequency of CIS-induced emesis [3, 5]: 94%
- reduction in percentage of shrews vomiting in response to CIS [3, 5]: 75%
- reduction in frequency of CIS-induced emesis [3, 6]: 99.8%
- reduction in percentage of shrews vomiting in response to CIS [3, 6]: 92%
- reduction in number of shrews vomiting, over tested doses ([3]; drug by itself, dose-dependent): completely protected
- reduction in frequency of CIS-induced emesis ([3]; tropisetron 0.025 mg/kg with 0.25 mg/kg Δ^9-THC): 60%
- reduction in frequency of CIS-induced emesis ([3]; tropisetron 0.1 mg/kg with 0.25 mg/kg Δ^9-THC): 59.8%
- reduction in frequency of CIS-induced emesis [3, 7]: 57.5%
- reduction in percentage of shrews vomiting in response to CIS [3, 7]: 58%
- reduction in frequency of CIS-induced emesis ([3]; tropisetron 0.25 mg/kg with 0.1 mg/kg Δ^9-THC, vs 0 mg/kg tropisetron): 88%
- reduction in frequency of CIS-induced emesis [3, 8]: 84%
- reduction in percentage of shrews vomiting in response to CIS [3, 8]: 50%
- reduction in frequency of CIS-induced emesis [3, 9]: 70%
- reduction in percentage of shrews vomiting in response to CIS [3, 9]: 50%
- reduction in frequency of CIS-induced emesis [3, 10]: 90.6%
- reduction in percentage of shrews vomiting in response to CIS [3, 10]: 78%
- reduction in frequency of CIS-induced emesis [3, 11]: 100%
- reduction in percentage of shrews vomiting in response to CIS [3, 11]: 100%
- reduction in frequency of CIS-induced emesis [3, 12]: 70.1%
- reduction in percentage of shrews vomiting in response to CIS [3, 12]: 83%
- reduction in frequency of CIS-induced emesis [3, 13]: 89.4%
- reduction in percentage of shrews vomiting in response to CIS [3, 13]: 71%
- reduction in frequency of CIS-induced emesis [3, 14]: 93%
- reduction in percentage of shrews vomiting in response to CIS [3, 14]: 70%
- reduction in frequency of CIS-induced emesis [3, 15]: 69.8%
- reduction in percentage of shrews vomiting in response to CIS [3, 15]: 58%
- effect on frequency of CIS-induced vomiting ([3]; tropisetron, all doses, combined with 1 mg/kg or 5 mg/kg Δ^9-THC): None of the cited doses of tropisetron had a significant effect
- effect on percentage of shrews vomiting ([3]; tropisetron, any dose, with 1 mg/kg and 5 mg/kg Δ^9-THC): no dose of tropisetron significantly altered

Compound: [Lys^3, Gly^8-R-gamma-lactam-leu^9]Neurokinin-A (3-10) [GR64349]
- produced emesis or significant scratchings ([4]; doses up to 10 mg/kg i.p.): neither

Compound: [Sar^9, Met (O2)”]-Substance P [Sar Met-SP]
- percentage of shrews vomiting ([4]; 1 mg/kg i.p.): 20%
- percentage of shrews vomiting ([4]; 5 mg/kg i.p.): 33%
- percentage of shrews vomiting ([4]; 10 mg/kg i.p.): 0%

Compound: acetyl-[Arg, Sar^9, Met (O2)^11]-SP (6-11) [ASMSP]
- percentage of shrews vomiting ([4]; 5 mg/kg i.p.): 37%
- percentage of shrews vomiting ([4]; 10 mg/kg i.p.): 50%
- percentage of shrews vomiting ([4]; 20 mg/kg i.p.): 50%
